Assay [1] concerns the target T1, H3R-445 (Homo sapiens, UniProt Q9Y5N1). The experiment in a line: cell-based. Further details: species or system HEK293-EPAC stably expressing H3R isoform. The settings on record: HEK293-EPAC stably expressing H3R isoform, read-out: H3R-445 α.
Assay [2] concerns the target T2, H3R-415 (Homo sapiens, UniProt Q9Y5N1). The experiment in a line: cell-based. The arrangement: species or system HEK293-EPAC stably expressing H3R isoform. The settings on record: HEK293-EPAC stably expressing H3R isoform, read-out: H3R-415 α.
The target of assay [3] is T3, H3R-365 (Homo sapiens, UniProt Q9Y5N1). Nature of the assay: cell-based. The settings on record: HEK293-EPAC stably expressing H3R isoform, read-out: H3R-365 α. Further details: species or system HEK293-EPAC stably expressing H3R isoform.
Another assay concerns the target H3R-453 (Homo sapiens, UniProt Q9Y5N1). Nature of the assay: cell-based. The arrangement: species or system HEK293-EPAC stably expressing H3R isoform. The settings on record: for H3R-453 α: relative to histamine, agonist; for Emax: HEK293-EPAC stably expressing H3R isoform, read-out: H3R-453 α.
Assay [4] deals with T1, H3R-445. The experiment in a line: cell-based. The arrangement: species or system HEK293-EPAC stably expressing H3R isoform. The settings on record: for H3R-445 α: relative to histamine, agonist; for Emax: HEK293-EPAC stably expressing H3R isoform, read-out: H3R-445 α.
Assay [5] concerns the target T2, H3R-415. The experiment in a line: cell-based. The arrangement: species or system HEK293-EPAC stably expressing H3R isoform. The settings on record: for H3R-415 α: relative to histamine, agonist; for Emax: HEK293-EPAC stably expressing H3R isoform, read-out: H3R-415 α.
Assay [6] deals with T4, H3R-413 (Homo sapiens, UniProt Q9Y5N1, DEL274-305). The experiment in a line: cell-based. The arrangement: species or system HEK293-EPAC stably expressing H3R isoform.
Assay [7] addresses T4, H3R-413. Nature of the assay: cell-based. The arrangement: species or system HEK293-EPAC stably expressing H3R isoform. The settings on record: for H3R-413 α: relative to histamine, agonist; for Emax: HEK293-EPAC stably expressing H3R isoform, read-out: H3R-413 α.
In assay [8] the target is T5, H3R-373 (Homo sapiens, UniProt Q9Y5N1, INS445KMKKKTCL). The experiment in a line: cell-based. The settings on record: for H3R-373 α: relative to histamine, agonist; for Emax: HEK293-EPAC stably expressing H3R isoform, read-out: H3R-373 α. Further details: species or system HEK293-EPAC stably expressing H3R isoform.
The target of assay [9] is T3, H3R-365. Nature of the assay: cell-based. The arrangement: species or system HEK293-EPAC stably expressing H3R isoform. The settings on record: for H3R-365 α: relative to histamine, agonist; for Emax: HEK293-EPAC stably expressing H3R isoform, read-out: H3R-365 α.
Assay [10] addresses T5, H3R-373.
For assay [11], the target named is T4, H3R-413. Nature of the assay: biochemical.
For assay [12], the target named is T5, H3R-373. Further details: species or system HEK293-EPAC stably expressing H3R isoform. The settings on record: agonist.
Assay [13] has as its target T3, H3R-365. The experiment in a line: biochemical.
Assay [14] addresses T1, H3R-445. The experiment in a line: biochemical.
The target in assay [15] is T2, H3R-415. The experiment in a line: biochemical.

The source of these data is publication doi:10.1101/2023.12.06.570349v1 (biorxiv, 2023).

Like-named read-outs stand apart in the source and are kept apart here.

For the compound `S=C(NC1CCCCC1)N1CCC(c2c[nH]cn2)CC1` [thioperamide, N-cyclohexyl-4-(3H-imidazol-4-yl)piperidine-1-carbothioamide], the figures for the Emax on H3R-445 [1], on H3R-415 [2] and at H3R-365 [3] were -90 ± 10%, -80 ± 80% and -100%, respectively.
On to `CN1CCC(Cc2c[nH]cn2)CC1` [Methimepip], for which the “H3R-453 α” value at H3R-453 was found to be 1.1 ± 0.2%. Moreover, on H3R-445 [4], the “H3R-445 α” value is given as 1.0 ± 0.2%. For the same compound, at H3R-415 [5], the “H3R-415 α” value was found to be 0.8 ± 0.1%. In addition, at H3R-413 [6], the EC50 (in general, the concentration giving half of the maximal effect) was 0.631 nM. For the same compound, the “H3R-413 α” value at H3R-413 [7] is 1.0 ± 0.1%. At H3R-373 [8], the “H3R-373 α” value was 0.8 ± 0.1%. Besides, at H3R-365 [9], the “H3R-365 α” value worked out at 0.8 ± 0.4%.
With `NCCCCc1c[nH]cn1` [imbutamine, 4-(3H-imidazol-4-yl)butan-1-amine], the Ki (usually a dissociation constant, usually derived from enzyme kinetics or from competition with a known ligand) was 0.398 nM on H3R-373 [10] and 1.58 nM at H3R-413 [11]. In addition, the Emax on H3R-453 was found to be 120 ± 30%; at H3R-445 [4] it was 100 ± 10%; on H3R-415 [5], 80 ± 10%; on H3R-413 [7], 90%; at H3R-373 [8], 80 ± 10%; on H3R-365 [9], 90 ± 30%. In addition, the “H3R-373 pEC50” value at H3R-373 [12] was found to be 9.5 ± 0.4 M.
For the compound `N=C(N)SCCc1cnc[nH]1` [imetit, 2-(3H-imidazol-4-yl)ethylsulfanylmethanimidamide], the Ki on H3R-373 [10] is 0.126 nM; at H3R-413 [11], 0.631 nM. In addition, the Emax on H3R-453 amounted to 100 ± 30%; at H3R-445 [4], 90 ± 10%; on H3R-415 [5], 70%; on H3R-413 [7], 100%; at H3R-373 [8] it was 80 ± 30%; at H3R-365 [9] it was 110 ± 20%. This compound also showed an EC50 at H3R-413 [6] of 0.316 nM.
`c1nc(CC2CCNCC2)c[nH]1` [Immepip]: at H3R-453, the “H3R-453 α” value is listed as 0.9 ± 0.1%. Further, the “H3R-445 α” value at H3R-445 [4] is on record as 1.0 ± 0.0%. For the same compound, at H3R-415 [5], the “H3R-415 α” value came out at 0.9 ± 0.1%. Also, on H3R-413 [6], the EC50 is 0.2 nM. Moreover, the “H3R-413 α” value on H3R-413 [7] turned out to be 1.0 ± 0.0%. Moreover, the “H3R-373 pEC50” value at H3R-373 [12] amounted to 10.1 ± 0.2 M. Moreover, the “H3R-373 α” value on H3R-373 [8] is on record as 0.8 ± 0.2%. Also, on H3R-365 [9], the “H3R-365 α” value came to 1.1 ± 0.1%.
Regarding `N=C(NCc1ccc(Cl)cc1)SCCCc1c[nH]cn1` [clobenpropit, N’-[(4-chlorophenyl)methyl]-1-[3-(3H-imidazol-4-yl)propylsulfanyl]methanimidamide], the Emax on H3R-445 [1] was -100 ± 30%; at H3R-415 [2], -80%; on H3R-365 [3] it was -80 ± 10%.
Taken in the same sequence, the figures for `C[C@@H]1CCCN1CCc1cc2cc(-c3ccc(C#N)cc3)ccc2o1` [ABT-239, 4-[2-[2-[(2R)-2-methylpyrrolidin-1-yl]ethyl]-1-benzofuran-5-yl]benzonitrile] were -100 ± 20%, -50 ± 30% and -110%.
With `N=C(N)SCCCc1cnc[nH]1` [VUF8328, 3-(1H-imidazol-5-yl)propyl carbamimidothioate], the Ki on H3R-373 [10] was 0.316 nM; at H3R-413 [11], 1.26 nM; on H3R-365 [13], 0.794 nM; on H3R-445 [14], 1.26 nM; on H3R-415 [15], 1.58 nM. The Emax at H3R-453 was determined as 90 ± 40%; at H3R-445 [4] it was 80 ± 20%; at H3R-415 [5] it was 50 ± 20%; on H3R-413 [7] it was 80 ± 10%; at H3R-373 [8], 70 ± 30%; at H3R-365 [9] it was 70 ± 20%. Besides, the “H3R-373 pEC50” value on H3R-373 [12] is 9.0 ± 0.8 M.
In the case of `c1cc(Cc2cnc[nH]2)ccn1` [immethridine, 4-(3H-imidazol-4-ylmethyl)pyridine], the Ki is 0.1 nM at H3R-373 [10] and 0.398 nM on H3R-413 [11]. Also, the Emax came out at 110 ± 40% on H3R-453; 90 ± 20% on H3R-445 [4]; 70 ± 10% at H3R-415 [5]; 100 ± 10% at H3R-413 [7]; 90 ± 10% on H3R-373 [8]; 110 ± 50% at H3R-365 [9]. Besides, on H3R-373 [12], the “H3R-373 pEC50” value is given as 10.1 ± 0.7 M.
